Measurements taken from US20250099478A1, “PLASMA KALLIKREIN INHIBITORS” (Merck Sharp & Dohme LLC, priority 2022, published 2025).

Experiments:
[1] = target: T1, Human plasma kallikrein (Homo sapiens, UniProt P03952); test: Plasma Kallikrein Assay; assay type: biochemical; details: purified Human plasma kallikrein 0.5 nM, substrate Acetyl-K-P-R-AFC; read-out: PKal IC50
T1 construct: yields a heavy chain (371 amino acids) and a light chain (248 amino acids); purchased Enzyme Research Laboratories
T1 sequence (P03952 391-638 limits assumed): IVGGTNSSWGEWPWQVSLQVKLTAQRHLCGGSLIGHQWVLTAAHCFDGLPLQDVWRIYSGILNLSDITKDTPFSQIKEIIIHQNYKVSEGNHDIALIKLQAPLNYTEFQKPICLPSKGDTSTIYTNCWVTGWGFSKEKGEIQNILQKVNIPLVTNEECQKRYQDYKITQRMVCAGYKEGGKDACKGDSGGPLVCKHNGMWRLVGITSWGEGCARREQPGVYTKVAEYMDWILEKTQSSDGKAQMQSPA
T1 sequence (P03952 20-390 partner limits assumed): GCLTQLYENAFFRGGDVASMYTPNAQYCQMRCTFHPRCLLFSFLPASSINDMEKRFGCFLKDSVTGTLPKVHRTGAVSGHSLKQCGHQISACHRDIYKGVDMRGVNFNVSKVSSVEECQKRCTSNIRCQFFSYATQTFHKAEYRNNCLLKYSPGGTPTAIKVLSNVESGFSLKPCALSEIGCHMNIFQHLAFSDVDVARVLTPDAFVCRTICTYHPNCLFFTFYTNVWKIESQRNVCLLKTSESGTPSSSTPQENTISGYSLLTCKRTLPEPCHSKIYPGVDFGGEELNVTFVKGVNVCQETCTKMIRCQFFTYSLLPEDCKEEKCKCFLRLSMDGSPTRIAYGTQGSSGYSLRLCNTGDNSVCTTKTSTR
Outline: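 Purified human plasma kallikrein (0.5 nM) hydrolysing fluorogenic Acetyl-K-P-R-AFC ([…]) in 50 mM HEPES pH 7.4, 150 mM NaCl, 5 mM CaCl2, 0.1% PEG 8000, at rt or 37 °C after enzyme–inhibitor equilibration. IC50 from four-parameter logistic fit; Ki via Cheng–Prusoff.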

[2] = target: T2, human factor XIa (Homo sapiens, UniProt P03951); test: Factor XIa Assay; assay type: biochemical; details: human factor XIa 0.04 nM, substrate GPR-AFC, 25° C.
T2 construct: with human (0.04 nM) factor XIa
T2 sequence (P03951 388-625 limits assumed): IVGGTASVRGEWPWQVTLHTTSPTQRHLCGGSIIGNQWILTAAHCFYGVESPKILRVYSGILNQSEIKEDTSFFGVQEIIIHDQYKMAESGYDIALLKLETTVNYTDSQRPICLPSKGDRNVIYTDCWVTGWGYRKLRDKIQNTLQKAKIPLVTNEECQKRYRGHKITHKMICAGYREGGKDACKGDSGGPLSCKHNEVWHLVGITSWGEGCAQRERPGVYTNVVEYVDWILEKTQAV
T2 sequence (P03951 19-387 partner limits assumed): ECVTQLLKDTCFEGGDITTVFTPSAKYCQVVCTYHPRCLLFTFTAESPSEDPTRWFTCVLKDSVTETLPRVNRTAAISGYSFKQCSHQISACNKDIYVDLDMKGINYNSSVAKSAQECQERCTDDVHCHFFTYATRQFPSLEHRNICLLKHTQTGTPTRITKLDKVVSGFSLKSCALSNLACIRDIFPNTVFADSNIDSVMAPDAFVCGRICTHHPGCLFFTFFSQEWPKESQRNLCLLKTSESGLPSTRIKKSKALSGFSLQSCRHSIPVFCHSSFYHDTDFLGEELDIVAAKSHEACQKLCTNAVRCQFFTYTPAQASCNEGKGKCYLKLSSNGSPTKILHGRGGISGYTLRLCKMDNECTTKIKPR

SMILES | IC50 [1] [nM] | IC50 [2] [nM]
CCC(O)(c1ccc(F)cc1)c1n[nH]c(C(=O)N2CCC[C@@]3(C2)OC(=O)Nc2ccc(Cl)c(F)c23)n1 (single isomer, unassigned) [Example 128, (R)-6-Chloro-5-fluoro-1′-(3-(UR or S)-1-(4-fluorophenyl)-1-hydroxypropyl)-1H-1,2,4-triazole-5-carbonyl)spiro[benzo[d][1,3]oxazine-4,3′-piperidin]-2(1H)-one] | 4 | 382
CCC(c1ccnc(C(F)(F)F)c1)c1c[nH]c(C(=O)N2CCC[C@@]3(C2)OC(=O)Nc2ccc(Cl)c(F)c23)n1 (single isomer, unassigned) [Example 74, (R)-6-Chloro-5-fluoro-1′-(4-((S or R)-1-(2-(trifluoromethyl)pyridin-4-yl)propyl)-1H-imidazole-2-carbonyl)spiro[benzo[d][1,3]oxazine-4,3′-piperidin]-2(1H)-one] | 10.8 | 2750
